Experimental data reported in US12565640B2, “Method for inducing ureteric bud-like tissue” (Kyoto University, priority 2017, dated 2026).
Entries after “also recorded” stand apart in the source; their conditions may differ.

Columns and labels:
[1] = tested on: anterior intermediate mesoderm cells; assay: Induction of Wolffian duct cells from anterior intermediate mesoderm cells (immunostaining, cell counts); assay type: cell-based, human; settings: for differentiation of Wolffian duct cells (OSR1^−GATA3^+PAX2^+) from anterior intermediate mesoderm cells / Total cell numbers after treatment: 3D45 cells; for Total cell numbers after treatment: FIG. 2E, mean±s.d., n=3, before treatment 1.44±0.29; for number of GATA3^+ (Wolffian duct) cells: supplementation during Wolffian duct induction
Experimental: Anterior intermediate mesoderm cells were treated with Essential 6 medium containing 1 μM CHIR99021, 0.1 μM LDN193189, 200 ng/ml FGF8 and 100 ng/ml glial cell line-derived neurotrophic factor (GDNF; R&D Systems) with or without 0.1 μM TTNPB for 2 days to enhance Wolffian duct leading edge cell induction. Then, the cells were dissociated into single cells by gentle pipetting after treatment with Accutase (Innovative Cell Technologies). The cells were seeded onto low-attachment 96-well plates (Sumitomo Bakelite) at a density of 1×10^4 cells/well in Essential 6 medium with 100 ng/ml GDNF, 200 ng/ml FGF1 (R&D Systems), 0.1 μM TTNPB, 3 μM CHIR99021 and 10 μM Thiazovivin (Santa Cruz Biotechnology) and incubated for 2 days to induce mature Wolffian duct aggregates.
(§1) The cells were fixed with 4% PFA/PBS for 20 min at 4° C. After washing with PBS, the cells were blocked with 1% normal donkey serum (Millipore) and 3% bovine serum albumin (BSA; Nacalai Tesque)/PBST (PBS/0.25% Triton X-100) for 1 h at room temperature. Primary antibodies were diluted in blocking solution and incubated with samples overnight at 4° C. Secondary antibodies were incubated for 1 h at room temperature.

[2] = tested on: anterior primitive streak (APS) cells; assay: Induction of anterior intermediate mesoderm cells from hiPSCs via anterior primitive streak (immunostaining, flow cytometry); assay type: cell-based, human; settings: for effect on induction efficiency / differentiation of OSR1^+GATA3^+ cells: added to the anterior intermediate mesoderm induction stage, 10 ng/ml BMP4 or 0.1 μM LDN193189
Experimental: Undifferentiated hiPSCs/ESCs were plated at a density of 2.5×10^4 cells/cm^2 onto tissue culture plates in maintenance medium with 10 μM Y-27632 and iMatrix-511 silk. After 24 h, the cells were washed with PBS and treated with Essential 6 medium (Thermo Fisher Scientific) containing 100 ng/ml Activin A (R&D Systems) and 3 μM CHIR99021 (Stem RD) with or without 10 ng/ml bone morphogenetic protein (BMP)4 (PeproTech) for 24 h.
To induce anterior intermediate mesoderm, the anterior primitive streak cells were treated with 200 ng/ml fibroblast growth factor (FGF) 8 (Peprotech), 0.1 μM 4-[(E)-2-(5,6,7,8-Tetrahydro-5,5,8,8-tetramethyl-2-naphthalenyl)-1-propenyl]-benzoic acid (TTNPB; Santa Cruz Biotechnology), 1 μM A83-01 and 0.1 μM LDN193189 for 2 days. Then, the cells were replated onto Matrigel-coated plates at a density of 1×10^5 cells/cm^2 in the anterior intermediate mesoderm induction medium with 10 μM Y-27632 and incubated for an additional 24 h.
as §1
After dissociation with Accutase, the cells were fixed, permeabilized and blocked with a BD Cytofix/Cytoperm Kit (Becton Dickinson). Then the cells were incubated with primary antibodies diluted at 1:100 in blocking solution for 30 min at room temperature. After washing twice, the cells were incubated with secondary antibodies diluted at 1:500 in blocking solution for 30 min at room temperature. The cells were then analyzed using FACS AriaII cell sorter (Becton Dickinson).

[3] = added to anterior intermediate mesoderm cells, immunostaining

Question: What does the source list for O=C(Nc1cccc2cccnc12)c1ccc(N2C(=O)[C@@H]3[C@H](C2=O)[C@@H]2C=C[C@H]3C2)cc1 [IWR-1]?
Answer: GATA3 and PAX2 expressions [1, 3]: diminished GATA3 and PAX2 expressions; OSR1 expression [1, 3]: prolonged OSR1 expression; differentiation of Wolffian duct cells (OSR1^−GATA3^+PAX2^+) from anterior intermediate mesoderm cells ([1]; immunostaining): inhibited the Wolffian duct induction

Question: Which “differentiation of SOX17^+ definitive endoderm cells” value ([2]; 1 μM A83-01 added to FGF8 and TTNPB, immunostaining) does the source give for Cc1cccc(-c2nn(C(=S)Nc3ccccc3)cc2-c2ccnc3ccccc23)n1 [A83-01, 3-(6-Methyl-2-pyridinyl)-N-phenyl-4-(4-quinolinyl)-1H-pyrazole-1-carbothioamide] here?
Answer: diminished; also recorded: decreases the differentiation into definitive endoderm cells

Question: And the “induction of anterior intermediate mesoderm-like cells (OSR1, GATA3 immunostaining)” value ([2]; treatment of APS cells)?
Answer: without inhibiting the induction of anterior intermediate mesoderm-like cells

Question: Which “differentiation of Wolffian duct cells (OSR1^−GATA3^+PAX2^+) from anterior intermediate mesoderm cells” value (“differentiation of Wolffian duct cells” for short) ([1]; immunostaining) does the source give for Cc1c[nH]c(-c2cnc(NCCNc3ccc(C#N)cn3)nc2-c2ccc(Cl)cc2Cl)n1 [CHIR99021, 6-[2-[4-(2,4-Dichlorophenyl)-5-(4-methyl-1H-imidazol-2-yl)pyrimidin-2-ylamino]ethylamino]pyridine-3-carbonitrile] here?
Answer: enhanced OSR1^−GATA3^+PAX2^− cell differentiation; also recorded: enhanced the differentiation

Question: Which “RET expression (Wolffian duct cell marker)” value [1, 3] does the source give for Cc1ccc(C2=CCC(C)(C)c3ccc(C#Cc4ccc(C(=O)O)cc4)cc32)cc1 [AGN193109] here?
Answer: diminished RET expression; also recorded: decreased the expression of RET

Question: For c1ccc2c(-c3cnn4cc(-c5ccc(N6CCNCC6)cc5)cnc34)ccnc2c1 [LDN193189, 4-(6-(4-(piperazin-1-yl)phenyl)pyrazolo[1,5-a]pyrimidin-3-yl)quinoline], which “effect on induction efficiency / differentiation of OSR1^+GATA3^+ cells” value [2] is on record?
Answer: did not change the induction efficiency

Question: And the “differentiation of Wolffian duct cells” value ([1]; immunostaining)?
Answer: enhanced the Wolffian duct induction

Question: C/C(=C\c1ccc(C(=O)O)cc1)c1ccc2c(c1)C(C)(C)CCC2(C)C [TTNPB, 4-[(E)-2-(5,6,7,8-Tetrahydro-5,5,8,8-tetramethyl-2-naphthalenyl)-1-propenyl]-benzoic acid] was tested. Which “differentiation of Wolffian duct cells” value ([1]; immunostaining) did it give?
Answer: early Wolffian duct cells were stably generated

B1: BMP4: bone morphogenetic protein (BMP)4 (PeproTech) (protein, UniProt P12644 293-408, looked up)
Bone morphogenetic protein 4: SPKHHSQRARKKNKNCRRHSLYVDFSDVGWNDWIVAPPGYQAFYCHGDCPFPLADHLNSTNHAIVQTLVNSVNSSIPKACCVPTELSAISMLYLDEYDKVVLKNYQEMVVEGCGCR
Question: Which results are given for B1?
Answer: induction rates of GATA3^+ cells ([2]; FIG. 1H, 10 ng/ml BMP4 at APS induction stage, 0.1 μM LDN193189 at anterior IM induction stage, mean±s.d., n=4): 69.1±13.9%; effect on induction efficiency / differentiation of OSR1^+GATA3^+ cells [2]: inhibited the differentiation; OSR1^+GATA3^+ cell induction rate ([2]; added to the anterior primitive streak induction stage): around 70 % of the total cells obtained; effect on OSR1^+GATA3^+ cell induction ([2]; added to the anterior primitive streak induction stage, 10 ng/ml BMP4, immunostaining): facilitated the OSR1^+GATA3^+ cell induction; differentiation of Wolffian duct cells (OSR1^−GATA3^+PAX2^+) from anterior intermediate mesoderm cells ([1]; immunostaining): suppressed Wolffian duct differentiation; also recorded: inhibited the differentiation of Wolffian duct cells

B2: FGF8: fibroblast growth factor (FGF) 8 (Peprotech) (protein, UniProt P55075 23-233, looked up)
Fibroblast growth factor 8: QEGPGRGPALGRELASLFRAGREPQGVSQQHVREQSLVTDQLSRRLIRTYQLYSRTSGKHVQVLANKRINAMAEDGDPFAKLIVETDTFGSRVRVRGAETGLYICMNKKGKLIAKSNGKGKDCVFTEIVLENNYTALQNAKYEGWYMAFTRKGRPRKGSKTRQHQREVHFMKRLPRGHHTTEQSLRFEFLNYPPFTRSLRGSQRTWAPEPR
Question: How did the “Total cell numbers after treatment” value [1] turn out when B2 was run?
Answer: 4.69±0.65 ×10^5/cm^2

Question: What about the “differentiation of Wolffian duct cells” value ([1]; immunostaining) of the same molecule?
Answer: enhanced the Wolffian duct induction

Question: What about the “number of GATA3^+ (Wolffian duct) cells” value [1] of the same molecule?
Answer: increased the number of GATA3^+ cells

B3: GDNF: glial cell line-derived neurotrophic factor (R&D Systems) (protein, UniProt P39905 78-211, looked up)
Glial cell line-derived …: SPDKQMAVLPRRERNRQAAAANPENSRGKGRRGQRGKNRGCVLTAIHLNVTDLGLGYETKEELIFRYCSGSCDAAETTYDKILKNLSRNRRLVSDKVGQACCRPIAFDDDLSFLDDNLVYHILRKHSAKRCGCI
Question: What does the source list for B3?
Answer: Total cell numbers after treatment [1]: 2.37±0.56 ×10^5/cm^2; number of GATA3^+ (Wolffian duct) cells [1]: increased the number of GATA3^+ Wolffian duct cells
